Measurements taken from PubChem BioAssay AID180 (DTP/NCI, 2004).
“And” between values parts separate entries of the source, which are not always exact repeats. Identical values can stand only once.

Tested on: BDF1 mice, Adenocarcinoma 755 s.c., tumor weight T/C
Assay: NCI In Vivo Anticancer Drug Screen. Data for tumor model Adenocarcinoma 755 (subcutaneous) in B6D2F1 (BDF1) mice
Conditions: endpoint: mean tumor weight, higher = larger tumour
How it was run: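 Compound activity was tested in mice carrying transplanted tumors. Survival or tumor size was measured, and each value is the treated-group measurement divided by that of the vehicle-treated control group (T/C).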

Question: What does the source list for `OCC1OC(n2cnc3c(=S)nc[nH]c32)C(O)C1O` (stereo not drawn)?
Answer: T/C (dose: 0.28 mg/kg/injection, schedule: Q01DX011 (ip), vehicle: carboxymethylcellulose (CMC)): 47 % of control; T/C (dose: 0.5 mg/kg/injection, schedule: Q01DX011 (ip), vehicle: saline): 31 % of control; T/C (dose: 0.56 mg/kg/injection, schedule: Q01DX011 (ip), vehicle: carboxymethylcellulose (CMC)): 100 % of control; T/C (dose: 1.0 mg/kg/injection, schedule: Q01DX011 (oral), vehicle: methylcellulose (MC)): 59 % of control; T/C (dose: 1.0 mg/kg/injection, schedule: Q01DX011 (oral), vehicle: saline): 63 % of control; T/C (dose: 1.12 mg/kg/injection, schedule: Q01DX011 (ip), vehicle: carboxymethylcellulose (CMC)): 30 % of control; T/C (dose: 1.25 mg/kg/injection, schedule: Q01DX011 (ip), vehicle: saline): 26 % of control; T/C (dose: 1.5 mg/kg/injection, schedule: Q01DX011 (ip), vehicle: carboxymethylcellulose (CMC)): 65 % of control; T/C (dose: 2.0 mg/kg/injection, schedule: Q01DX011 (oral), vehicle: methylcellulose (MC)): 9 % of control; T/C (dose: 2.0 mg/kg/injection, schedule: Q01DX011 (oral), vehicle: saline): 47 % of control; T/C (dose: 2.23 mg/kg/injection, schedule: Q01DX011 (ip), vehicle: carboxymethylcellulose (CMC)): 4 % of control and 7 % of control; T/C (dose: 2.5 mg/kg/injection, schedule: Q01DX011 (ip), vehicle: carboxymethylcellulose (CMC)): 34 % of control; T/C (dose: 3.0 mg/kg/injection, schedule: Q01DX011 (oral), vehicle: methylcellulose (MC)): 14 % of control; T/C (dose: 3.75 mg/kg/injection, schedule: Q01DX011 (ip), vehicle: carboxymethylcellulose (CMC)): 6 % of control and 12 % of control; T/C (dose: 4.0 mg/kg/injection, schedule: Q01DX011 (oral), vehicle: methylcellulose (MC)): 4 % of control; T/C (dose: 4.0 mg/kg/injection, schedule: Q01DX011 (oral), vehicle: saline): 9 % of control; T/C (dose: 4.47 mg/kg/injection, schedule: Q01DX011 (ip), vehicle: carboxymethylcellulose (CMC)): 10 % of control; T/C (dose: 5.0 mg/kg/injection, schedule: Q01DX011 (oral), vehicle: methylcellulose (MC)): 3 % of control; T/C (dose: 7.5 mg/kg/injection, schedule: Q01DX011 (ip), vehicle: carboxymethylcellulose (CMC)): 5 % of control and 8 % of control; T/C (dose: 8.0 mg/kg/injection, schedule: Q01DX011 (oral), vehicle: saline): 7 % of control; T/C (dose: 8.94 mg/kg/injection, schedule: Q01DX011 (ip), vehicle: carboxymethylcellulose (CMC)): 5 % of control; T/C (dose: 10.0 mg/kg/injection, schedule: Q01DX006 (iv), vehicle: saline): 2 % of control; T/C (dose: 10.0 mg/kg/injection, schedule: Q01DX011 (ip), vehicle: saline): 4 % of control; T/C (dose: 10.0 mg/kg/injection, schedule: Q01DX011 (oral), vehicle: methylcellulose (MC)): 2 % of control; T/C (dose: 10.0 mg/kg/injection, schedule: Q01DX011 (sc), vehicle: saline): 4 % of control; T/C (dose: 10.0 mg/kg/injection, schedule: Q03DX004 (im), vehicle: saline): 3 % of control; T/C (dose: 15.0 mg/kg/injection, schedule: Q01DX011 (ip), vehicle: carboxymethylcellulose (CMC)): 2 % of control and 7 % of control; T/C (dose: 17.87 mg/kg/injection, schedule: Q01DX011 (ip), vehicle: carboxymethylcellulose (CMC)): 6 % of control; T/C (dose: 18.75 mg/kg/injection, schedule: Q01DX011 (ip), vehicle: carboxymethylcellulose (CMC)): 2 % of control; T/C (dose: 20.0 mg/kg/injection, schedule: Q01DX006 (iv), vehicle: saline): 2 % of control; T/C (dose: 20.0 mg/kg/injection, schedule: Q01DX011 (ip), vehicle: saline): 4 % of control; T/C (dose: 20.0 mg/kg/injection, schedule: Q01DX011 (sc), vehicle: saline): 2 % of control; T/C (dose: 20.0 mg/kg/injection, schedule: Q03DX004 (im), vehicle: saline): 2 % of control; T/C (dose: 25.0 mg/kg/injection, schedule: Q01DX011 (ip), vehicle: carboxymethylcellulose (CMC)): 3 % of control; T/C (dose: 35.75 mg/kg/injection, schedule: Q01DX011 (ip), vehicle: carboxymethylcellulose (CMC)): 5 % of control; T/C (dose: 37.5 mg/kg/injection, schedule: Q01DX011 (ip), vehicle: carboxymethylcellulose (CMC)): 2 % of control and 5 % of control; T/C (dose: 40.0 mg/kg/injection, schedule: Q01DX006 (iv), vehicle: saline): 3 % of control; T/C (dose: 40.0 mg/kg/injection, schedule: Q01DX010 (oral), vehicle: saline): 3 % of control; T/C (dose: 40.0 mg/kg/injection, schedule: Q01DX011 (ip), vehicle: saline): 3 % of control; T/C (dose: 40.0 mg/kg/injection, schedule: Q01DX011 (sc), vehicle: saline): 4 % of control; T/C (dose: 40.0 mg/kg/injection, schedule: Q03DX004 (im), vehicle: saline): 1 % of control; T/C (dose: 57.0 mg/kg/injection, schedule: Q01DX011 (ip), vehicle: carboxymethylcellulose (CMC)): 9 % of control; T/C (dose: 71.5 mg/kg/injection, schedule: Q01DX011 (ip), vehicle: carboxymethylcellulose (CMC)): 5 % of control; T/C (dose: 73.0 mg/kg/injection, schedule: Q01DX011 (ip), vehicle: carboxymethylcellulose (CMC)): 4 % of control; T/C (dose: 75.0 mg/kg/injection, schedule: Q01DX011 (ip), vehicle: carboxymethylcellulose (CMC)): 4 % of control; T/C (dose: 80.0 mg/kg/injection, schedule: Q01DX006 (iv), vehicle: saline): 3 % of control; T/C (dose: 80.0 mg/kg/injection, schedule: Q01DX011 (ip), vehicle: alkali diluted with saline): 4 % of control; T/C (dose: 80.0 mg/kg/injection, schedule: Q01DX011 (ip), vehicle: saline): 5 % of control; T/C (dose: 80.0 mg/kg/injection, schedule: Q01DX011 (sc), vehicle: saline): 4 % of control; T/C (dose: 80.0 mg/kg/injection, schedule: Q03DX004 (im), vehicle: saline): 2 % of control; T/C (dose: 115.0 mg/kg/injection, schedule: Q01DX011 (ip), vehicle: carboxymethylcellulose (CMC)): 3 % of control; T/C (dose: 120.0 mg/kg/injection, schedule: Q01DX011 (ip), vehicle: alkali diluted with saline): 2 % of control and 3 % of control; T/C (dose: 143.0 mg/kg/injection, schedule: Q01DX011 (ip), vehicle: carboxymethylcellulose (CMC)): 5 % of control; T/C (dose: 146.0 mg/kg/injection, schedule: Q01DX011 (ip), vehicle: carboxymethylcellulose (CMC)): 6 % of control; T/C (dose: 150.0 mg/kg/injection, schedule: Q01DX011 (ip), vehicle: carboxymethylcellulose (CMC)): 4 % of control; T/C (dose: 160.0 mg/kg/injection, schedule: Q01DX011 (ip), vehicle: alkali diluted with saline): 3 % of control; T/C (dose: 200.0 mg/kg/injection, schedule: Q01DX011 (ip), vehicle: carboxymethylcellulose (CMC)): 6 % of control; T/C (dose: 225.0 mg/kg/injection, schedule: Q01DX011 (ip), vehicle: carboxymethylcellulose (CMC)): 6 % of control; T/C (dose: 231.0 mg/kg/injection, schedule: Q01DX011 (ip), vehicle: carboxymethylcellulose (CMC)): 5 % of control; T/C (dose: 250.0 mg/kg/injection, schedule: Q01DX011 (ip), vehicle: carboxymethylcellulose (CMC)): 3 % of control; T/C (dose: 300.0 mg/kg/injection, schedule: Q01DX011 (ip), vehicle: carboxymethylcellulose (CMC)): 7 % of control; T/C (dose: 320.0 mg/kg/injection, schedule: Q01DX001 (ip), vehicle: alkali diluted with saline): 5 % of control and 7 % of control; T/C (dose: 320.0 mg/kg/injection, schedule: Q01DX001 (oral), vehicle: alkali diluted with saline): 18 % of control; T/C (dose: 320.0 mg/kg/injection, schedule: Q03DX004 (ip), vehicle: alkali diluted with saline): 1 % of control and 5 % of control; T/C (dose: 320.0 mg/kg/injection, schedule: Q03DX004 (oral), vehicle: alkali diluted with saline): 2 % of control; T/C (dose: 320.0 mg/kg/injection, schedule: Q07DX002 (ip), vehicle: alkali diluted with saline): 3 % of control and 7 % of control; T/C (dose: 320.0 mg/kg/injection, schedule: Q07DX002 (oral), vehicle: alkali diluted with saline): 4 % of control; T/C (dose: 480.0 mg/kg/injection, schedule: Q01DX001 (ip), vehicle: alkali diluted with saline): 4 % of control and 9 % of control; T/C (dose: 480.0 mg/kg/injection, schedule: Q01DX001 (oral), vehicle: alkali diluted with saline): 8 % of control; T/C (dose: 480.0 mg/kg/injection, schedule: Q03DX004 (ip), vehicle: alkali diluted with saline): 2 % of control and 3 % of control; T/C (dose: 480.0 mg/kg/injection, schedule: Q07DX002 (ip), vehicle: alkali diluted with saline): 6 % of control; T/C (dose: 480.0 mg/kg/injection, schedule: Q07DX002 (oral), vehicle: alkali diluted with saline): 7 % of control; T/C (dose: 640.0 mg/kg/injection, schedule: Q01DX001 (ip), vehicle: alkali diluted with saline): 5 % of control; T/C (dose: 640.0 mg/kg/injection, schedule: Q01DX001 (oral), vehicle: alkali diluted with saline): 9 % of control; T/C (dose: 640.0 mg/kg/injection, schedule: Q07DX002 (ip), vehicle: alkali diluted with saline): 4 % of control; T/C (dose: 640.0 mg/kg/injection, schedule: Q07DX002 (oral), vehicle: alkali diluted with saline): 3 % of control; T/C (dose: 960.0 mg/kg/injection, schedule: Q01DX001 (oral), vehicle: alkali diluted with saline): 9 % of control; T/C (dose: 960.0 mg/kg/injection, schedule: Q07DX002 (oral), vehicle: alkali diluted with saline): 6 % of control
